# Patent publication US12465590B2, “Oxalamido-substituted tricyclic inhibitors of hepatitis b virus” (priority 2019, dated 2025)
# Tested on: HBV
# Test: HBV inhibition assay in HepAD38 cells (extracellular HBV DNA by direct qPCR)
# Format: cell-based, HBV genotype D subtype ayw
# Settings: 96 hours, read-out: HBV inh EC50
# Source text: HepAD38 cell line (Ladner et al., Antimicrob Agents Chemother, 1997, 41, 1715-20) was used for HBV inhibition assays. HepAD38 is a subclone, derived from hepatoblastoma cell line HepG2 (ATCC® Number: HB-8065), that expresses HBV genome (genotype D subtype ayw) under the transcriptional control of a tetracycline-responsive promoter in a TET-OFF system: addition of doxycycline, an antibiotic belonging to the class of tetracycline, suppresses HBV replication, while its removal switches on the process allowing HBV viral particles release in the cell supernatant. HepAD38 cell line is maintained in DMEM/F12, supplemented with 10% of fetal bovine serum, 1% of glutamine, 1% of penicillin/streptomycin, 0.4 mg/ml G418 and 0.3 ug/ml tetracycline. For the HBV inhibition assay, doxycycline-free medium is used in order to allow virion production.
# HBV inhibition activity in vitro was performed in 96 multiwell plates. During the initial (primary) screening, compounds were first tested in triplicates at concentrations of 0.02 μM, 0.1 μM, 0.5 μM and 1 μM. For selected compounds, an 8-point dose-response curve was obtained using 1:2 serial dilutions (starting from 0.01 μM, 0.1 μM, 0.4 μM or 5 μM, depending on the degree of inhibition observed during the primary screening). From the dose-response curves, half maximal effective concentration (EC50) could be calculated (see also below).
# In more detail, compounds—typically dissolved in DMSO stock solutions—were diluted to 2× the final desired concentration in 100 μl of the above medium (without doxycycline) and plated in three replicates in the 96-well plates.
# Simultaneously, HepAD38 cells—extensively pre-washed in doxycycline-free medium in order to induce HBV production—were suspended at 2*10^4 cells in 100 μl of doxycycline-free medium and added to each well of the plate, to yield a final assay volume of 200 μl.
# DMSO, used for stock solutions and compounds dilutions, was always present in the assays at a final concentration of 0.5%.
# Plates were then incubated 96 hours at 37° C. and then subjected to cell viability assays and extracellular HBV quantification, in order to evaluate both the cytotoxic potential and the antiviral activity of compounds.
# Cytotoxicity was assessed by a commercial fluorescence assay that measures the metabolic activity of cells, directly related to cell viability (Cell Titer Blue, Promega). For each compound, cytotoxicity was evaluated at the same concentration employed to evaluate its anti-HBV activity. Anti-HBV activity was evaluated by quantification of extracellular HBV DNA with direct qPCR. In particular, supernatant was collected and centrifuged for cell debris clarification, viral DNA was extracted from virions by addition of lysis buffer (1 mM 1,4-dithiothreitol, 0.2% sodium dodecyl sulphate) and incubated at 95° C. for 10 min. Samples were then diluted 1:40 and real time PCR amplification was performed with SYBR green assay (Power SYBR™ Green PCR Master Mix-Thermo Fisher Scientific) and specific HBV primer (HBV-DF:5′-[…]-3′ (SEQ ID No. 1), HBV-DR:5′-[…]-3′ (SEQ ID No. 2)).
# Antiviral activity data for each compound are reported as EC50 value (see Table 1 legend). Excel and Graphpad Prism programs are typically used for data elaboration and EC50 calculation.
row,SMILES,EC50
1,"Cc1cc(NC(=O)c2c3c(cn2C)S(=O)(=O)NC2CN(C(=O)C(=O)N[C@H](C)C(F)(F)F)CCC2CO3)ccc1F (mixture of isomers) [Example E66, Trans-N-(4-fluoro-3-methylphenyl)-2-methyl-7-(2-oxo-2-(((R)-1,1,1-trifluoropropan-2-yl)amino)acetyl)-5,5a,6,7,8,9,9a,10-octahydro-2H-pyrido[3,4-f]pyrrolo[3,4-b][1,4,5]oxathiazocine-1-carboxamide 4,4-dioxide]",< 500 nM
2,"Cc1cc(NC(=O)c2c3c(cn2C)S(=O)(=O)NC2CN(C(=O)C(=O)NC4CC4)CCC2CO3)ccc1F (racemic) [Example E67, Trans-7-(2-(cyclopropylamino)-2-oxoacetyl)-N-(4-fluoro-3-methylphenyl)-2-methyl-5,5a,6,7,8,9,9a,10-octahydro-2H-pyrido[3,4-f]pyrrolo[3,4-b][1,4,5]oxathiazocine-1-carboxamide 4,4-dioxide]",< 500 nM
3,"Cc1cc(NC(=O)c2c3c(cn2C)S(=O)(=O)NC2CN(C(=O)C(=O)NCC(F)(F)F)CCC2CO3)ccc1F (racemic) [Example E68, Trans-N-(4-fluoro-3-methylphenyl)-2-methyl-7-(2-oxo-2-((2,2,2-trifluoroethyl)amino)acetyl)-5,5a,6,7,8,9,9a,10-octahydro-2H-pyrido[3,4-f]pyrrolo[3,4-b][1,4,5]oxathiazocine-1-carboxamide 4,4-dioxide]",< 500 nM
4,"Cc1cc(NC(=O)c2c3c(cn2C)S(=O)(=O)NC2CN(C(=O)C(=O)NC(C)(C)C(F)(F)F)CCC2CO3)ccc1F (racemic) [Example E69, Trans-N-(4-fluoro-3-methylphenyl)-2-methyl-7-(2-oxo-2-((1,1,1-trifluoro-2-methylpropan-2-yl)amino)acetyl)-5,5a,6,7,8,9,9a,10-octahydro-2H-pyrido[3,4-f]pyrrolo[3,4-b][1,4,5]oxathiazocine-1-carboxamide 4,4-dioxide]",< 500 nM
5,"Cc1cc(NC(=O)c2c3c(cn2C)S(=O)(=O)NC2CN(C(=O)C(=O)N4CC(F)(F)C4)CCC2CO3)ccc1F (racemic) [Example E70, Trans-7-(2-(3,3-difluoroazetidin-1-yl)-2-oxoacetyl)-N-(4-fluoro-3-methylphenyl)-2-methyl-5,5a,6,7,8,9,9a,10-octahydro-2H-pyrido[3,4-f]pyrrolo[3,4-b][1,4,5]oxathiazocine-1-carboxamide 4,4-dioxide]",< 500 nM
6,"Cc1cc(NC(=O)c2c3c(cn2C)S(=O)(=O)NC2CN(C(=O)C(=O)N[C@@H](C)C(F)(F)F)CCC2CO3)ccc1F (mixture of isomers) [Example E71, Trans-N-(4-fluoro-3-methylphenyl)-2-methyl-7-(2-oxo-2-(((S)-1,1,1-trifluoropropan-2-yl)amino)acetyl)-5,5a,6,7,8,9,9a,10-octahydro-2H-pyrido[3,4-f]pyrrolo[3,4-b][1,4,5]oxathiazocine-1-carboxamide 4,4-dioxide]",< 500 nM
7,"Cc1cc(NC(=O)c2c3c(cn2C)S(=O)(=O)NC2CCN(C(=O)C(=O)N[C@H](C)C(F)(F)F)CC2CO3)ccc1F (mixture of isomers) [Example E72, Cis-N-(4-fluoro-3-methylphenyl)-2-methyl-8-(2-oxo-2-(((R)-1,1,1-trifluoropropan-2-yl)amino)acetyl)-5,5a,6,7,8,9,9a,10-octahydro-2H-pyrido[4,3-f]pyrrolo[3,4-b][1,4,5]oxathiazocine-1-carboxamide 4,4-dioxide]",< 500 nM
8,"Cc1cc(NC(=O)c2c3c(cn2C)S(=O)(=O)NC2CCN(C(=O)C(=O)NCC(F)(F)F)CC2CO3)ccc1F (racemic) [Example E73, Cis-N-(4-fluoro-3-methylphenyl)-2-methyl-8-(2-oxo-2-((2,2,2-trifluoroethyl)amino)acetyl)-5,5a,6,7,8,9,9a,10-octahydro-2H-pyrido[4,3-f]pyrrolo[3,4-b][1,4,5]oxathiazocine-1-carboxamide 4,4-dioxide]",< 500 nM

# Same assay, conditions: Hepatitis B virus, 96 hours, read-out: HBV inh EC50
row,SMILES,EC50
1,"Cc1cc(NC(=O)c2c3c(cn2C)S(=O)(=O)NC2CN(C(=O)C(=O)NC(C)(C)C(F)(F)F)CCC2CO3)ccc1F (racemic) [Example E62, Cis-N-(4-fluoro-3-methylphenyl)-2-methyl-7-(2-oxo-2-((1,1,1-trifluoro-2-methylpropan-2-yl)amino)acetyl)-5,5a,6,7,8,9,9a,10-octahydro-2H-pyrido[3,4-f]pyrrolo[3,4-b][1,4,5]oxathiazocine-1-carboxamide 4,4-dioxide]",< 500 nM
2,"Cc1cc(NC(=O)c2c3c(cn2C)S(=O)(=O)NC2CN(C(=O)C(=O)N4CC(F)(F)C4)CCC2CO3)ccc1F (racemic) [Example E63, Cis-7-(2-(3,3-difluoroazetidin-1-yl)-2-oxoacetyl)-N-(4-fluoro-3-methylphenyl)-2-methyl-5,5a,6,7,8,9,9a,10-octahydro-2H-pyrido[3,4-f]pyrrolo[3,4-b][1,4,5]oxathiazocine-1-carboxamide 4,4-dioxide]",< 500 nM
3,"Cc1cc(NC(=O)c2c3c(cn2C)S(=O)(=O)NC2CN(C(=O)C(=O)NC4CC4)CCC2CO3)ccc1F (racemic) [Example E64, Cis-7-(2-(cyclopropylamino)-2-oxoacetyl)-N-(4-fluoro-3-methylphenyl)-2-methyl-5,5a,6,7,8,9,9a,10-octahydro-2H-pyrido[3,4-f]pyrrolo[3,4-b][1,4,5]oxathiazocine-1-carboxamide 4,4-dioxide]",< 500 nM
4,"Cc1cc(NC(=O)c2c3c(cn2C)S(=O)(=O)NC2CN(C(=O)C(=O)N[C@@H](C)C(F)(F)F)CCC2CO3)ccc1F (mixture of isomers) [Example E65, Cis-N-(4-fluoro-3-methylphenyl)-2-methyl-7-(2-oxo-2-(((S)-1,1,1-trifluoropropan-2-yl)amino)acetyl)-5,5a,6,7,8,9,9a,10-octahydro-2H-pyrido[3,4-f]pyrrolo[3,4-b][1,4,5]oxathiazocine-1-carboxamide 4,4-dioxide]",< 500 nM
5,"Cc1cc(NC(=O)c2c3c(cn2C)S(=O)(=O)NC2CN(C(=O)C(=O)N[C@H](C)C(F)(F)F)CC2(C)CO3)ccc1F (stereo in doubt) [Example E26, Cis-N-(4-fluoro-3-methylphenyl)-7,10a-dimethyl-2-(2-oxo-2-(((R)-1,1,1-trifluoropropan-2-yl)amino)acetyl)-2,3,3a,4,10,10a-hexahydro-1H,7H-dipyrrolo[3,4-b:3′,4′-f][1,4,5]oxathiazocine-8-carboxamide 5,5-dioxide]",< 500 nM
6,"Cc1cc(NC(=O)c2c3c(cn2C)S(=O)(=O)NC2(C)CN(C(=O)C(=O)N[C@H](C)C(F)(F)F)CC2CO3)ccc1F (stereo in doubt) [Example E27, Cis-N-(4-fluoro-3-methylphenyl)-3a,7-dimethyl-2-(2-oxo-2-(((R)-1,1,1-trifluoropropan-2-yl)amino)acetyl)-2,3,3a,4,10,10a-hexahydro-1H,7H-dipyrrolo[3,4-b:3 ‘,4’-f][1,4,5]oxathiazocine-8-carboxamide 5,5-dioxide]",< 500 nM
7,"Cc1cc(NC(=O)c2c3c(cn2C)S(=O)(=O)NC2CN(C(=O)C(=O)N[C@H](C)C(F)(F)F)CC2CO3)ccc1F (stereo in doubt) [Example E30, trans-N-(4-fluoro-3-methylphenyl)-7-methyl-2-(2-oxo-2-(((R)-1,1,1-trifluoropropan-2-yl)amino)acetyl)-2,3,3a,4,10,10a-hexahydro-1H,7H-dipyrrolo[3,4-b:3′,4′-f][1,4,5]oxathiazocine-8-carboxamide 5,5-dioxide]",< 500 nM
8,"Cc1cc(NC(=O)c2c3c(c(Br)n2C)S(=O)(=O)N[C@H]2CN(C(=O)C(=O)N[C@H](C)C(F)(F)F)C[C@H]2CO3)ccc1F [Example E52, (3aR,10aR)-6-bromo-N-(4-fluoro-3-methylphenyl)-7-methyl-2-(2-oxo-2-(((R)-1,1,1-trifluoropropan-2-yl)amino)acetyl)-2,3,3a,4,10,10a-hexahydro-1H,7H-dipyrrolo[3,4-b:3′,4′-f][1,4,5]oxathiazocine-8-carboxamide 5,5-dioxide]",< 500 nM
